Laboratory results reported in patent US20240228507A1, “GREEN SOLVENTS FOR CHEMICAL REACTIONS” (ECOLE POLYTECHNIQUE FÉDÉRALE DE LAUSANNE (EPFL), priority 2021, published 2024).

Tests used:
Format in all cases: physicochemical
[1] = Stability under acidic conditions; details: 0.8M HCl
[2] = Miscibility with different solvents; design: key: “*” indicating—not miscible; details: Table 1d; blank cell = miscible
[3] = Kamlet-Abboud-Taft solvatochromic parameters (dye absorption spectra); details: Table 1a
Excerpt: Determination of the Kamlet-Abboud-Taft parameters was based on the absorption spectrum of two dyes (N,N-diethyl-4-nitroaniline and 4-nitroaniline) in different solvents, that allow calculating corresponding values using known procedures (P. G. Jessop, D. A. Jessop, D. Fu and L. Phan, Green Chem., 2012, 14, 1245-1259).

[4] = Stability of DFX under basic conditions (GC-FID/GC-MS, colour change); design: key to Reaction (Y/N): *Reaction (Y/N) means color change compared to blank solution.; *Reaction (Y/N) means color change compared to blank solution
Experimental: To assess DFX stability under basic conditions, we tested a series of organic and inorganic bases at 80° C. and 110° C. for maximum 48 h (Table 6). Visual color change compared to a blank solution of pure DFX indicated some reactions were occurring. After 0.5 h, 24 h, 48 h of exposure, the samples were injected in GC-FID and GC-MS and the area of DFX was compared with the one in blank sample using decane as the internal standard. As a result of this experiment, we identified some potential limitations of this emerging solvent. Specifically, inorganic bases such as K2CO3, NaOH, CsCO3 led to the highest extent of degradation (maximum 21% after 48 h). Triethylamine (NEt3) caused less than 5% of degradation, but led to the formation of dark solution as well as K2CO3, NaOH, CsCO3. Probably, impurities existing in DFX (95% pure) also contribute to a color change as they could interact with bases.

[5] = Stability under hydrogenation conditions
Experimental: It is important to note that, DFX was stable under hydrogenation conditions (40 bar of H2, 70° C., 24 h), thus it can be used in reactions requiring high pressure of H2, elevated temperature, and/or long reaction time, which is a very desirable property for biomass-derived solvents.
40 bar of H2, 70° C., 24 h • 2. 40 bar of H2, 250° C., 3 h

[6] = CsCO3 (base cell blank, row r16), 80° C., 0.5 h
[7] = CsCO3 (base cell blank, row r16), 80° C., 24 h
[8] = CsCO3 (base cell blank, row r16), 80° C., 48 h
[9] = CsCO3 (base cell blank, row r17), 110° C., 0.5 h
[10] = CsCO3 (base cell blank, row r17), 110° C., 24 h
[11] = CsCO3 (base cell blank, row r17), 110° C., 48 h
[12] = CsCO3, 110° C. (row r15), 0.5 h

## C1OC[C@H]2O[C@@H]3OCO[C@@H]3[C@H]2O1 [DFX, Diformylxylose]
[1]; 70 to 95° C., no formaldehyde
  DFX recovered: more than 80%
[1]; formaldehyde added
  DFX stable: around 90%
[2]
  Miscibility with Cyclohexane: *
  Miscibility with Hexane: *
  Miscibility with di-n-butyl ether: *
[3]
  Kamlet-Taft Parameters Π*: 0.92
[4]; [6]
  DFX degradation: 1%
  Reaction (Y/N): Y
[4]; [7]
  DFX degradation: 4%
  Reaction (Y/N): Y
[4]; [8]
  DFX degradation: 8%
  Reaction (Y/N): Y
[4]; [9]
  DFX degradation: 1%
  Reaction (Y/N): Y
[4]; [10]
  DFX degradation: 7%
  Reaction (Y/N): Y
[4]; [11]
  DFX degradation: 11%
  Reaction (Y/N): Y
[4]; [12]
  DFX degradation: 3%
  Reaction (Y/N): Y
[4]; CsCO3, 110° C. (row r15), 24 h
  DFX degradation: 11%
  Reaction (Y/N): Y
[4]; CsCO3, 110° C. (row r15), 48 h
  DFX degradation: 21%
  Reaction (Y/N): Y
[4]; K2CO3, 80° C., 0.5 h
  DFX degradation: 2%
  Reaction (Y/N): Y
[4]; K2CO3, 80° C., 24 h
  DFX degradation: 3%
  Reaction (Y/N): Y
[4]; K2CO3, 80° C., 48 h
  DFX degradation: 7%
  Reaction (Y/N): Y
[4]; K2CO3, 110° C., 0.5 h
  DFX degradation: 2%
  Reaction (Y/N): Y
[4]; K2CO3, 110° C., 24 h
  DFX degradation: 5%
  Reaction (Y/N): Y
[4]; K2CO3, 110° C., 48 h
  DFX degradation: 13%
  Reaction (Y/N): Y
[4]; KOAc, 80° C., 0.5 h
  DFX degradation: 0%
  Reaction (Y/N): N
[4]; KOAc, 80° C., 24 h
  DFX degradation: 2%
  Reaction (Y/N): N
[4]; KOAc, 80° C., 48 h
  DFX degradation: 3%
  Reaction (Y/N): N
[4]; KOAc, 110° C., 0.5 h
  DFX degradation: 1%
  Reaction (Y/N): Y
[4]; KOAc, 110° C., 24 h
  DFX degradation: 3%
  Reaction (Y/N): Y
[4]; KOAc, 110° C., 48 h
  DFX degradation: 5%
  Reaction (Y/N): Y
[4]; NEt3, 80° C., 0.5 h
  DFX degradation: 3%
  Reaction (Y/N): Y
[4]; NEt3, 80° C., 24 h
  DFX degradation: 4%
  Reaction (Y/N): Y
[4]; NEt3, 80° C., 48 h
  DFX degradation: 5%
  Reaction (Y/N): Y
[4]; NaOH, 80° C., 0.5 h
  DFX degradation: 0%
  Reaction (Y/N): Y
[4]; NaOH, 80° C., 24 h
  DFX degradation: 9%
  Reaction (Y/N): Y
[4]; NaOH, 80° C., 48 h
  DFX degradation: 17%
  Reaction (Y/N): Y
[4]; Pyridine, 80° C., 0.5 h
  DFX degradation: 0%
  Reaction (Y/N): N
[4]; Pyridine, 80° C., 24 h
  DFX degradation: 0%
  Reaction (Y/N): N
[4]; Pyridine, 80° C., 48 h
  DFX degradation: 0%
  Reaction (Y/N): N
[4]; Pyridine, 110° C., 0.5 h
  DFX degradation: 0%
  Reaction (Y/N): N
[4]; Pyridine, 110° C., 24 h
  DFX degradation: 3%
  Reaction (Y/N): Y
[4]; Pyridine, 110° C., 48 h
  DFX degradation: 6%
  Reaction (Y/N): Y
[4]; Triethylamine (NEt3)
  DFX degradation: less than 5%
[4]; inorganic bases K2CO3, NaOH, CsCO3, after 48 h
  DFX degradation, highest extent: ≤ 21%
[5]; 40 bar of H2, 70° C., 24 h
  stability under hydrogenation conditions: remained stable
[5]; 40 bar of H2, 250° C., 3 h
  stability under hydrogenation conditions: remained stable
